Source: PubChem BioAssay AID2060612 (Molecular Pharmacology Branch, DTP, NCI, 2025)

Tested on: 565232-114-T-J1-PDC complex spheroid viability
Experiment: Anticancer human tumor 565232-114-T-J1-PDC patient-derived bladder carcinoma cell line growth inhibition [CLK]
Settings: for IC50: curve of first compound; for viability, T/C: stronger effect = lower value
Summary of the method: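 Patient-derived tumor cells grown as complex spheroids with HUVEC endothelial cells and mesenchymal stem cells, treated with drug combinations. Concentrations descend in half-log steps from near clinical Cmax, or from 10 microM if Cmax unknown.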

[1] = second compound 0.0316 µM, first compound 0.0316 µM
[2] = second compound 0.0316 µM, first compound 0.1 µM
[3] = second compound 0.0316 µM, first compound 0.316 µM
[4] = second compound 0.0316 µM, first compound 1 µM
[5] = second compound 0.0316 µM, first compound 3.16 µM
[6] = second compound 0.0316 µM, first compound 10 µM
[7] = second compound 0.1 µM, first compound 0.0316 µM
[8] = second compound 0.1 µM, first compound 0.1 µM
[9] = second compound 0.1 µM, first compound 0.316 µM
[10] = second compound 0.1 µM, first compound 1 µM
[11] = second compound 0.1 µM, first compound 3.16 µM
[12] = second compound 0.1 µM, first compound 10 µM
[13] = second compound 0.316 µM, first compound 0.0316 µM
[14] = second compound 0.316 µM, first compound 0.1 µM
[15] = second compound 0.316 µM, first compound 0.316 µM
[16] = second compound 0.316 µM, first compound 1 µM
[17] = second compound 0.316 µM, first compound 3.16 µM
[18] = second compound 0.316 µM, first compound 10 µM
[19] = second compound 1 µM, first compound 0.0316 µM
[20] = second compound 1 µM, first compound 0.1 µM
[21] = second compound 1 µM, first compound 0.316 µM
[22] = second compound 1 µM, first compound 1 µM
[23] = second compound 1 µM, first compound 3.16 µM
[24] = second compound 1 µM, first compound 10 µM
[25] = second compound 3.16 µM, first compound 0.0316 µM
[26] = second compound 3.16 µM, first compound 0.1 µM
[27] = second compound 3.16 µM, first compound 0.316 µM
[28] = second compound 3.16 µM, first compound 1 µM
[29] = second compound 3.16 µM, first compound 3.16 µM
[30] = second compound 3.16 µM, first compound 10 µM
[31] = second compound 10 µM, first compound 0.0316 µM
[32] = second compound 10 µM, first compound 0.1 µM
[33] = second compound 10 µM, first compound 0.316 µM
[34] = second compound 10 µM, first compound 1 µM
[35] = second compound 10 µM, first compound 3.16 µM
[36] = second compound 10 µM, first compound 10 µM
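Further: spheroids exposed to compounds for 7 days before readout.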
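Wherever viability, T/C is given: 100% = DMSO vehicle wells with luminescence normalized to vehicle control.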

In the case of `CC(=O)O[C@H]1C(=O)[C@@]2(C)[C@H]([C@H](OC(=O)c3ccccc3)[C@]3(O)C[C@H](OC(=O)[C@H](O)[C@@H](NC(=O)c4ccccc4)c4ccccc4)C(C)=C1C3(C)C)[C@]1(OC(C)=O)CO[C@@H]1C[C@@H]2O` + CN1CCN(c2cc(C(=O)Nc3cc4cc(-c5cnn(C)c5)ccc4cn3)ccn2)CC1, the IC50 (second compound 0.0316 µM) is reported as < 31.6 nM, the IC50 (second compound 0.1 µM) is reported as < 31.6 nM and the IC50 (second compound 0.316 µM) is reported as < 31.6 nM. The IC50 (second compound 1 µM) was < 31.6 nM, the IC50 (second compound 3.16 µM) was < 31.6 nM and the IC50 (second compound 10 µM) was < 31.6 nM. It also gave a viability, T/C [1] of 33.2%, a viability, T/C [2] of 17.3% and a viability, T/C [3] of 18.3%. The viability, T/C [4] was 16.5%, the viability, T/C [5] was 21.1% and the viability, T/C [6] was 20.4%. For the same compound, the viability, T/C [7] was 25.3%, the viability, T/C [8] was 23.1% and the viability, T/C [9] was 20.2%. For the same compound, the viability, T/C [10] was 16.3%, the viability, T/C [11] was 17% and the viability, T/C [12] was 22.6%. It also gave a viability, T/C [13] of 7.34%, a viability, T/C [14] of 11.6% and a viability, T/C [15] of 13.5%. For the same compound, the viability, T/C [16] was 12.6%, the viability, T/C [17] was 13.7% and the viability, T/C [18] was 14.9%. For the same compound, the viability, T/C [19] was 1.4%, the viability, T/C [20] was 0.18% and the viability, T/C [21] was 0.18%. For the same compound, the viability, T/C [22] was 0.13%, the viability, T/C [23] was 0.16% and the viability, T/C [24] was 0.95%. The viability, T/C [25] was 0.15%, the viability, T/C [26] was 0.19% and the viability, T/C [27] was 0.17%. The viability, T/C [28] was 1.81%, the viability, T/C [29] was 0.95% and the viability, T/C [30] was 3.05%. The viability, T/C [31] was 0.18%, the viability, T/C [32] was 0.55% and the viability, T/C [33] was 2.34%. The viability, T/C [34] was 0.22%, the viability, T/C [35] was 1.4% and the viability, T/C [36] was 0.16%.

`COc1cccc2c1C(=O)c1c(O)c3c(c(O)c1C2=O)CC(O)(C(=O)CO)CC3OC1CC(N)C(O)C(C)O1` (centres undefined) + CN1CCN(c2cc(C(=O)Nc3cc4cc(-c5cnn(C)c5)ccc4cn3)ccn2)CC1 was tested, and the IC50 (second compound 0.0316 µM) was 308 nM, the IC50 (second compound 0.1 µM) was 247 nM and the IC50 (second compound 0.316 µM) was < 31.6 nM. The IC50 (second compound 1 µM) was < 31.6 nM, the IC50 (second compound 3.16 µM) was < 31.6 nM and the IC50 (second compound 10 µM) was < 31.6 nM. The viability, T/C [1] was 105%, the viability, T/C [2] was 109% and the viability, T/C [3] was 48.1%. The viability, T/C [4] was 9.14%, the viability, T/C [5] was 0.19% and the viability, T/C [6] was 0.25%. It also gave a viability, T/C [7] of 115%, a viability, T/C [8] of 89.1% and a viability, T/C [9] of 40.7%. It also gave a viability, T/C [10] of 5.59%, a viability, T/C [11] of 0.19% and a viability, T/C [12] of 0.21%. For the same compound, the viability, T/C [13] was 18.3%, the viability, T/C [14] was 13.6% and the viability, T/C [15] was 6.17%. The viability, T/C [16] was 0.17%, the viability, T/C [17] was 1.79% and the viability, T/C [18] was 0.82%. It also gave a viability, T/C [19] of 0.13%, a viability, T/C [20] of 0.18% and a viability, T/C [21] of 0.16%. It also gave a viability, T/C [22] of 0.17%, a viability, T/C [23] of 3.15% and a viability, T/C [24] of 0.74%. It also gave a viability, T/C [25] of 1.46%, a viability, T/C [26] of 0.16% and a viability, T/C [27] of 0.94%. It also gave a viability, T/C [28] of 2.29%, a viability, T/C [29] of 2.17% and a viability, T/C [30] of 1.43%. It also gave a viability, T/C [31] of 0.09%, a viability, T/C [32] of 0.11% and a viability, T/C [33] of 0.22%. For the same compound, the viability, T/C [34] was 2.57%, the viability, T/C [35] was 0.16% and the viability, T/C [36] was 1.03%.
